# Experimental data published in EP4537846A2, “ANAVEX2-73 FOR THE TREATMENT OF ALZHEIMER S DISEASE” (priority 2017, dated 2018).
# Assays:
# [1] = system: muscarinic acetylcholine receptors; details: 'is believed to bind'; cited from earlier work
# [2] = system: mild-to-moderate Alzheimer's disease patients; experiment: Phase 2a clinical trial: event related potentials (ERP), auditory P300, three-stimulus oddball paradigm; assay type: in vivo
# Method: (§1) The 36-day multicenter randomized clinical trial included both male and female mild-to-moderate Alzheimer's disease patients. ANAVEX2-73 was administered to twelve subjects as an add-on therapy to the donepezil current standard of care. ANAVEX2-73 was administered according to a two-period on-off-on cross-over dosing regimen in which the subjects were administered ANAVEX2-73 for 12 days (1st period) followed by a 12-day wash-out period before being administered ANAVEX2-73 for a second 12-day period (2nd period). Those subjects that were administered ANAVEX2-73 by oral administration during the 1st period were administered ANAVEX2-73 intravenously during the 2nd period, and vice versa. About half of the subjects were administered a 30 mg oral dosage form while the other half of subjects were administered a 50 mg oral dosage form. The intravenous dosage was either 3 mg or 5 mg, with about half of the subjects administered 3 mg and the other half administered 5 mg.
# Resting electroencephalographic (EEG) activity and event related potentials (EEG/ERP) were used to assess the cognitive effects of ANAVEX2-73 administration. Event related potentials (ERPs) are voltage changes time-locked to some physical or mental occurrence in ongoing electrical brain activity, as recorded by EEG. Event-related potentials (ERPs) provide a sensitive and reliable measure of the cognitive effects associated with early Alzheimer's disease. […] See for example, New Encycl. Neurosci., Oxford Academic Press, p. 13-18 (2009). For example, ERP tests on young presymptomatic individuals who carry mutations in the presenilin-1 and amyloid precursor protein genes show significant changes in ERP patterns years before the onset of behavioral symptoms and the development of Alzheimer's disease. See for example, Neurology 73, 1649-1655 (2009); Neurology 77, 469-475 (2011). […] For instance, ERP markers of cognitive function are increasingly altered in longitudinal studies on individuals with mild cognitive impairment (MCI) and Alzheimer's disease patients. See for example, Clin. Neurophysiol. 122, 1322-1326 (2011); Clin. Neurophysiol. 121, 194-199 (2010). […] See for example, Neurol. Neurochir. Pol. 35 Suppl 3, 37-43 (2001); Clin. Neuropharmacol. 25, 207-215 (2002); Neurosci. Biomed. Eng. 1, 34-39 (2013).
# In particular, the auditory P300 component of the ERP has been widely applied in the study of age-related cognitive dysfunction because it is thought to reflect attentional and memory processes. Auditory P300 is a positive deflection occurring at about 300 ms from stimulus onset. It is generated by the activation of multiple neocortical and limbic regions. Auditory P300 has two functionally different components, an earlier P3a component that is maximal over frontocentral regions, and a later P3b component (hereafter "P300") that is maximal at the posterior scalp locations. See for example, Int. J. of Alzheimer's Dis. 2011, Article ID 653173, 1-7 (2011). P300 amplitude data collected as part of a double blind six month study for 15 patients with mild Alzheimer's disease on donepezil, as compared to a vitamin E baseline, has shown that P300 amplitude data correlates with ADAS-Cog and MMSE data for the same patients. See, Clin. Neuropharmacol. 25(4), 207-215 (2002).
# Subjects were tested using a three-stimulus oddball paradigm. Stimuli comprised of standard tones (1000 Hz), target tones (2000 Hz) and unexpected distractor tones (white noise) that were played with probabilities of 0.75, 0.15, and 0.10. Tones were presented in pseudorandom order, so that target and distractor tones were never presented sequentially. Subjects were instructed to respond to the target stimuli by pressing a button with their dominant hand. For each test, between 300 and 400 stimuli were presented binaurally through insert ear phones at 70 dB volume. The tone duration for each stimulus was 100 ms with rise and fall times of 10 ms. The interstimulus interval was randomized between 1.5 and 2 s. […]
# [3] = system: mild-to-moderate Alzheimer's disease patients; experiment: Phase 2a clinical trial: EEG peak alpha frequency (PAF); assay type: in vivo; details: twelve patients, day 36 vs baseline
# Method: as §1, with “The intravenous dosage was either 3 mg or 5 mg, with about half of the subjects administered 3 mg and the other half administered 5 mg.” left out
# Resting electroencephalographic (EEG) activity and event related potentials (EEG/ERP) were used to assess the cognitive effects of ANAVEX2-73 administration. Event related potentials (ERPs) are voltage changes time-locked to some physical or mental occurrence in ongoing electrical brain activity, as recorded by EEG. […]
# Subjects were tested using a three-stimulus oddball paradigm. […] Electroencephalographic (EEG) activity was recorded from seven electrode sites (Fz, Cz, Pz, F3, P3, F4, and P4) of the international 10-20 system using a COGNISION™ Headset (Neuronetrix). […]
# healthy male volunteers = experiment: Randomized, placebo-controlled single ascending dose Phase 1 study; assay type: in vivo
# Method: See Poster: A Phase 1 Dose Escalation Study to Investigate Safety, Tolerability, and Pharmacokinetics of ANAVEX2-73 in Healthy Male Subjects, CNS Summit 2014, Boca Raton, FL, by Ole Voges, Ingo Weigmann, Norman Bitterlich, Christoph Schindler and Christopher Missling. […] Based on the frequency and intensity of […] adverse events (TEAEs) the maximum tolerable dose (MTD) and the minimum intolerable dose (MID) were defined as 55 mg and 60 mg, respectively.
# sigma-1 = sigma-1 (Homo sapiens, UniProt Q99720); details: sigma-1 receptor; 'is believed to bind'; cited from earlier work
# Sequence of sigma-1 (Q99720 whole entry): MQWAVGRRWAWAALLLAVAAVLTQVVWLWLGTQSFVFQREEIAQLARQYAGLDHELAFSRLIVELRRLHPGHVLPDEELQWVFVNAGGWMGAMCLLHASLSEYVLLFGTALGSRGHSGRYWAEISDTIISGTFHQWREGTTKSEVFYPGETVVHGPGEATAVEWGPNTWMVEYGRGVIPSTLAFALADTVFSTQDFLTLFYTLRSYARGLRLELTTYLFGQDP
# [4] = system: mild-to-moderate Alzheimer's disease patients; experiment: Phase 2a clinical trial: MMSE and Cogstate scales; assay type: in vivo; details: preliminary; twelve subjects, on-off-on regimen
# Method: as §1
# (§2) 5-9, were achieved without any dose optimization. […] An additional 20 subjects will be studied during the remainder of the Phase 2a clinical trial. Phase 2b clinical trials, involving an additional 26-week extension of daily oral dosage administration of ANAVEX2-73 is on-going.
# [5] = system: patients with Alzheimer's disease or presenting with the early signs of Alzheimer's disease; experiment: Single-patient treatment examples with intermittent dosing regimen; assay type: in vivo; details: person
# Excerpt: The following examples show uses of ANAVEX2-73 in the treatment of patients with Alzheimer's disease or presenting with the early signs of Alzheimer's disease. The clinical determination that a patient may have Alzheimer's disease or is presenting with early signs of Alzheimer's disease is well known in the art. By way of example, the following references (and all publications cited herein) are incorporated by reference herein in their entireties: Dementia: From Diagnosis to Management - A Functional Approach 1st Edition, Psychology Press (February 17, 2009); Clinician's Guide to Psychological Assessment and Testing: With Forms and Templates for Effective Practice 1st Edition, Springer Publishing Company (September 18, 2012); Neurodegener. Dis. Manag. 5(3), 191-201 (2015); Artif. Intell. Med. 64(1), 59-74 (2015); Clin. Chem. 60(12), 1585-1586 (2014); and Metabolism 64(3 Suppl 1), S47-50 (2014).
# amyloid toxicity in mice = details: cited from earlier work
# [6] = system: mild-to-moderate Alzheimer's disease patients; experiment: Phase 2a clinical trial: safety profile; assay type: in vivo; details: during Phase 2a trials
# Method: as §1, §2
# [7] = single ascending oral doses, healthy subjects
smiles,measurement,setting,value
"CN(C)CC1CCOC1(c1ccccc1)c1ccccc1.Cl (stereo not drawn) [ANAVEX2-73, tetrahydro-N,N-dimethyl-2,2-diphenyl-3-furanmethanamine hydrochloride]",affinities,[1],low micromolar range
same,patients with improved P300 signal,[2]; 10 out of the 12 patients studied,83%
same,Percentage Increase Over Baseline Data,"[2]; P300 amplitude, Day 36 vs baseline, twelve patients, hydrochloride",38%
same,percent P300 amplitude change compared to historical data for patients administered donepezil,[2]; after 1 month vs donepezil after 6 months,greater
same,P300 amplitude change compared to historical data for patients administered donepezil,[2]; day 36 (1 month) vs donepezil at the 1 month time point,about four times higher
same,False Alarms,"[2]; target detection task, Day 36, twelve patients (baseline 2.67 ± 1.12)",0.64 ± 0.26%
same,Button Press Accuracy,"[2]; target detection task, Day 36, twelve patients (baseline 86.2 ± 4.47)",87.5 ± 4.01%
same,Median Reaction Time,"[2]; target detection task, Day 36, twelve patients (baseline 593 ± 33.0)",534 ± 42.0 ms
same,P300 ERP wave data,"[2]; twelve patients, day 36 vs baseline, on-off-on regimen (30 or 50 mg oral, 3 or 5 mg i.v.), add-on to donepezil",improved measured cognitive performance as compared to the baseline data
same,peak alpha frequency (PAF),[3],higher than the baseline measurement of PAF
same,safety and tolerability,"healthy male volunteers; ascending single oral doses of 1 mg, 10 mg, 30 mg, 40 mg, 50 mg, and 55 mg, healthy subjects",safe and well tolerated
same,observed adverse events,healthy male volunteers; at highest doses,moderate and reversible dizziness and headache
same,minimum intolerable dose (MID),"healthy male volunteers; male, human, in vivo, po",60 mg
same,Blood pressure and resting heart rate and other clinical parameters such as vital signs and 12-lead electrocardiogram (ECG),healthy male volunteers; [7],did not show any clinically relevant or dose-dependent changes
same,QT interval and QTcB,healthy male volunteers; [7],did not reveal any clinically significant changes
same,pharmacokinetics,healthy male volunteers; [7],suitable for daily oral dosing
same,serious adverse events,healthy male volunteers; [7],No serious adverse events occurred
same,maximum tolerable dose (MTD),"healthy male volunteers; single oral dose, healthy male volunteers",55 mg
same,affinities,sigma-1,low micromolar range
same,Mini Mental State Examination (MMSE) and Cogstate scale changes,[4],consistent with the observed trend of the cognitive EEG/ERP effect
same,loss of cognitive function,"[5]; 3 mg intravenously, 5 days on / 20 days off, one year",stabilizes
same,loss of cognitive function,"[5]; 5 mg intravenously, 14 days on / 7 days off, one year",stabilizes
same,loss of cognitive function,"[5]; 30 mg oral, 10 days on / 10 days off, 6 months",stabilizes
same,loss of cognitive function,"[5]; 50 mg oral, 10 days on / 20 days off",stabilizes
same,loss of cognitive function,"[5]; 50 mg oral, 14 days on / 7 days off, 6 months",stabilized
same,Aβ25-35-induced P-Akt decrease and P-GSK-3β increase,amyloid toxicity in mice; Aβ25-35 model,blocked
same,Aβ25-35-induced endogenous Aβ1-42 seeding,amyloid toxicity in mice; Aβ25-35 model,decrease
same,hyperphosphorylation of Tau on physiological epitopes (AT-8 antibody clone) and on pathological epitopes (AT-100 clone),"amyloid toxicity in mice; Aβ25-35 model, in the dose-range tested",attenuated
same,"oxidative stress, caspases induction, cellular loss and learning and memory deficits",amyloid toxicity in mice; mice one week after i.c.v. injection of oligomeric Aβ25-35,attenuating
same,safety profile,[6],consistent with the Phase 1 data
